Format in all cases: in vivo
Assay [1] has as its system Apera spica-venti (APESV). Nature of the assay: Greenhouse herbicidal test, pre-emergence. The note with it: application rate 5 kg/ha, scale 0 to 100. The text has this: (§1) The culture containers used were plastic flowerpots containing loamy sand with approximately 3.0% of humus as the substrate. The seeds of the test plants were sown separately for each species.
For the pre-emergence treatment, the active ingredients, which had been suspended or emulsified in water, were applied directly after sowing by means of finely distributing nozzles. The containers were irrigated gently to promote germination and growth and subsequently covered with transparent plastic hoods until the test plants had rooted. This cover caused uniform germination of the test plants, unless this had been impaired by the active ingredients.
(§2) Depending on the species, the test plants were kept at 10-25° C. or 20-35° C., respectively.
(§3) The test period extended over 2 to 4 weeks. During this time, the test plants were tended, and their response to the individual treatments was evaluated.
(§4) Evaluation was carried out using a scale from 0 to 100. 100 means no emergence of the test plants, or complete destruction of at least the aerial moieties, and 0 means no damage, or normal course of growth. A moderate herbicidal activity is given at values of 40 to 59, good herbicidal activity is given at values of more than 59 to 80 and a very good herbicidal activity is given at values of more than 80 to 100.

Assay [2] has as its system Setaria viridis (SETVI). Nature of the assay: Greenhouse herbicidal test, post-emergence. The note with it: postemergence, application rate 5 kg/ha, scale 0 to 100.
Description: as §1
(§5) For the post-emergence treatment, the test plants were first grown to a height of 2 to 15 cm, depending on the plant habit, and only then treated with the active ingredients which had been suspended or emulsified in water. For this purpose, the test plants were either sown directly and grown in the same containers, or they were first grown separately as seedlings and transplanted into the test containers a few days prior to treatment.
as §2, §3, §4

Assay [3] concerns Amaranthus retroflexus (AMARE). Nature of the assay: Greenhouse herbicidal test, post-emergence. The note with it: postemergence, application rate 5 kg/ha, scale 0 to 100.
Description: as §1, §5, §2, §3, §4

Assay [4] deals with Echinocloa crus-galli (ECHCG). Nature of the assay: Greenhouse herbicidal test, post-emergence. The note with it: postemergence, application rate 5 kg/ha, scale 0 to 100.
Description: as §1, §5, §2, §3, §4

Assay [5] has as its system Alopercurus myosuroides (ALOMY). As to the kind of experiment: Greenhouse herbicidal test, post-emergence. The conditions noted are these: postemergence, application rate 5 kg/ha, scale 0 to 100.
Description: as §1, §5, §2, §3, §4

For `CP(=O)(O)CC[C@@H](NC(N)=O)C(=O)O` [Compound b], the “herbicidal activity against APESV” value in assay [1] is on record as “good (good herbicidal activity is given at values of more than 59 to 80)”.
With `CP(=O)(O)CCC1NC(=O)NC1=O` (centres unmarked) [Compound e], the “herbicidal activity against SETVI” value in assay [2] was “good (good herbicidal activity is given at values of more than 59 to 80)”.
With `CCCCOP(C)(=O)CCC(NC(N)=O)C(=O)O` (centres unmarked) [Compound f, 4-[butoxy(methyl)phosphoryl]-2-ureido-butanoic acid], in assay [3], the “herbicidal activity against AMARE” value was “good (good herbicidal activity is given at values of more than 59 to 80)”. Besides, the “herbicidal activity against ECHCG” value in assay [4] was “good (good herbicidal activity is given at values of more than 59 to 80)”.
On to `CP(=O)(O)CCC(NC(N)=O)C(=O)O` (centres unmarked) [Compound a], for which the “herbicidal activity against ALOMY” value in assay [5] is listed as “moderate (A moderate herbicidal activity is given at values of 40 to 59)”.

Values taken from patent US20250049037A1, “HERBICIDAL ACTIVITY OF ALKYL PHOSPHINATES” (priority 2021, published 2025).
